Laboratory results reported in patent publication US9505834B2, “Methods for controlling the galactosylation profile of recombinantly-expressed proteins” (AbbVie Inc., priority 2011, dated 2016).

Columns and labels:
[1] = tested on: CHO cell line producing mAb #2; assay: Example 8 oligosaccharide analysis, CDM GIA-1, fed-batch 3 L bioreactors; assay type: cell-based, Chinese Hamster
Experimental: (§1) For all studies with CHO cell lines described throughout this invention, samples were collected daily and measured for cell density and viability using a Cedex cell counter. Retention samples for titer analysis via Poros A method were collected by centrifugation at 12,000 RPM for 5 min when the culture viability began declining. The cultures were harvested by collecting 125 mL aliquots and centrifuging at 3,000 RPM for 30 min when culture viability was near or below 50%. All supernatants were stored at −80° C. until analysis.
(§2) For all studies, the harvest samples were Protein A purified and prepared for the oligosaccharide assay using the following procedures. As a first step in the process of establishing the identity and quantifying the oligosaccharides, they are released from the protein by enzymatic digestion with N-glycanase. Once the glycans are released, the free reducing end of each glycan is labeled by reductive amination with a fluorescent tag, 2-aminobenzamide (2-AB). The resulting labeled glycans are separated by normal-phase HPLC (NP-HPLC) in acetonitrile: 50 mM ammonium formate, pH 4.4, and detected by a fluorescence detector. Quantitation is based on the relative area percent of detected sugars. Throughout this invention, the relative area percentages of the agalactosyl fucosylated biantennary oligosaccharides, denoted as NGA2F+NGA2F-GlcNAc sum, and the galactose-containing fucosylated biantennary oligosaccharides NA1F+NA2F sum are reported and discussed.
Growth and production media for the mAb #2 producing CHO cell line were prepared using the proprietary Life Technologies Gibco chemically defined media, GIA-1.
Upon thaw, cells were expanded in Corning vented non-baffled shake flasks maintained on orbital shakers at 140 RPM, and in 10 L cell bags (2 L working volume) maintained at 25 RPM, 7° angle, 0.25 SLPM airflow in a dry incubator at 36° C. and 5% CO2. Production cultures were initiated in 3 L bioreactors (1.5 L initial working volume) at 36° C., 25% dissolved oxygen, 200 RPM, and pH 7.0. The chemically-defined feed from Life Technologies Gibco JCL-5 was added as follows: 3% (v/v)—day 3, 5%—day 5, 7%—day 7, 10%—day 9, and 10%—day 11. […] Bioreactors were harvested at viability of approximately 70% or below or on production day 15, whichever condition occurred first.
Galactose was supplemented at 0, 15, 30, and 60 mM concentrations in both production and feed media.

[2] = tested on: CHO cell line producing mAb #1; assay: Example 7 culture growth & productivity; assay type: cell-based, Chinese Hamster
Experimental: as §1
(§3) Growth and production media for the CHO cell line producing mAb #1 were prepared using a proprietary Life Technologies Gibco chemically defined media, GIA-1. […] All media were filtered through Corning 0.5 L or 1 L filter systems (0.22 μm PES) and stored at 4° C. until use.
(§4) Upon thaw, cells were expanded for 6 (3 day each) passages in a combination of 250 mL, 500 mL, and 1000 mL Corning vented non-baffled shake flasks. Production cultures were initiated in duplicate 500 mL Corning vented non-baffled shake flasks (200 mL working volume) at an initial VCD of approximately 0.5×10^6 cells/mL. Cultures were maintained on orbital shakers at 125 RPM in a dry incubator at 35° C. and 5% CO2. A glucose solution (1.25% (v/v) of 40% solution) was fed when the media glucose concentration fell below 3 g/L. […]

[3] = tested on: CHO cell line producing mAb #1; assay: Example 7 oligosaccharide analysis, CDM GIA-1, batch shake flasks; assay type: cell-based, Chinese Hamster
Experimental: as §1, §2, §3, §4

[4] = tested on: adalimumab-producing NSO cell line; assay: Example 6 culture growth & productivity; assay type: cell-based; conditions: for culture growth and viability profiles: galactose 0 to 5 mM and/or manganese chloride up to 0.5 μM
Experimental: Growth and production media for the adalimumab-producing NSO cell line were prepared using a proprietary Life Technologies Gibco chemically defined media, PFBM-3 basal medium plus PFFM-4 feed medium.
Upon thaw, cells were expanded for 3 to 5 (2 days each) passages in a combination of 250 mL, 500 mL, 1 L, 2 L and 3 L Corning vented non-baffled shake flasks. Production cultures were initiated in single 1 L Corning vented non-baffled shake flasks (240 mL initial working volume) at an initial VCD of approximately 2.5×10^5 cells/mL. Cultures were maintained on orbital shakers at 100 RPM in a dry incubator at 37° C. and 5% CO2. The shake flask study was run in a fed-batch mode and the culture was fed PFFM-4 as follows: 24 mL—day 2, 28.8 mL—day 4, 28.8 mL—day 6, and 28.8 mL—day 8.
Samples were collected every 2 days and measured for cell density and viability using a Cedex cell counter. Retention samples for titer analysis via Poros A method were collected daily beginning on Day 8 by centrifugation at 2,000 g for 10 min and then filtered through 0.2 μm PVDF syringe filter. The cultures were harvested on production day 10. The entire culture was collected, chilled on ice to approximately 0° C. for 1.5 hours, the cells and debris flocculated at pH 5.0 by the addition of 1M citric acid and held for 15 minutes, and centrifuged at 4000x g for 15 min at 5° C. The supernatant was passed through 0.20 μm Millipore Stericup PES filters, and, immediately post filtration, the acidified clarified cell-free harvest was neutralized with 2M Tris to pH 7.1±0.2. The cell free harvest was transferred to PETG bottles and stored at −80° C. until analysis.
Galactose was supplemented at the following levels in both production and feed media: 0, 1, 4, 5, and 10 mM.

[5] = manganese chloride alone, range 0 to 75 μM
[6] = manganese chloride alone, range 0 to 40 μM

Compound	decrease in the NGA2F+NGA2F-GlcNac sum ([1]; 15 mM galactose alone)	decrease in the NGA2F+NGA2F-GlcNac sum ([1]; 30 mM galactose alone)	maximum decrease in the NGA2F+NGA2F-GlcNac sum ([1]; galactose alone up to 60 mM)	maximum increase in the NA1F+NA2F sum ([1]; galactose alone up to 60 mM)	culture growth ([2]; galactose alone)	decrease in the NGA2F+NGA2F-GlcNac sum ([3]; 40 mM galactose alone)	maximum decrease in the NGA2F+NGA2F-GlcNac sum ([3]; galactose alone up to 40 mM)	maximum increase in the NA1F+NA2F sum ([3]; galactose alone up to 40 mM)	culture growth and viability profiles [4]	effect on culture growth and productivity ([4]; galactose 10 mM)	harvest titer lower than control condition ([4]; galactose 10 mM)	decrease in the NGA2F+NGA2F-GlcNac sum ([1]; 25 μM manganese chloride alone)	decrease in the NGA2F+NGA2F-GlcNac sum ([1]; 50 μM manganese chloride alone)	maximum decrease in the NGA2F+NGA2F-GlcNac sum [1, 5]	maximum increase in the NA1F+NA2F sum [1, 5]	culture growth ([2]; manganese chloride alone 0 to 20 μM)	decrease in the NGA2F+NGA2F-GlcNac sum ([3]; 40 μM manganese chloride alone)	maximum decrease in the NGA2F+NGA2F-GlcNac sum [3, 6]	maximum increase in the NA1F+NA2F sum [3, 6]
O=C[C@H](O)[C@@H](O)[C@@H](O)[C@H](O)CO [galactose, D(+)Galactose]	7%	12%	12%	11%	grew to a lower maximum VCD compared to the control	12%	12%	13%	comparable to the control condition	detrimental effect on culture growth and productivity	60%	–	–	–	–	–	–	–	–
Manganese (II) Chloride [manganese chloride]	–	–	–	–	–	–	–	–	comparable to the control condition	–	–	10%	18%	18%	16%	grew comparable to the control cultures	20%	26%	27%
